The nature of test [1]: Cerebral blood flow in the internal carotid artery system under ACVA model by ischemic and hemorrhagic types. Type of test: in vivo. To be noted: rats, intravenous, doses of 3, 30, 50 and 100 mg/kg.
In another test the test system is neurospecific enolase. The test can be described thus: Experimental treatment of rats with ischemic ACVA: neuronal degradation marker activity. The format is in vivo. To be noted: 10 mg/kg once a day for 96 hours of ischemia. An excerpt:
This evidences about the appropriateness of the use of the pharmaceutical compositions for parenteral use comprising the active substance 1-adamantylethyloxy-3-morpholino-2-propanol or pharmaceutically acceptable salts thereof for treatment and prevention of ischemic brain lesions after thrombolysis, stenting, balloon angioplasty, atheroctomy and removal of aneurysms in the internal carotid and vertebral arteries system.

Test [2] deals with NMDA-receptor-ionofor complex of hippocampal pyramidal neurons. The test can be described thus: Aspartate-activated currents in individual pyramidal hippocampal neurons. Type of test: cell-based, white Wistar WAG\GSto rats. To be noted: individual pyramidal hippocampal neurons of 15-day aged rats.
Test [3] in a line: Experimental treatment of rats with ischemic ACVA: endothelial dysfunction and nitrosating stress. Type of test: in vivo. To be noted: 20 mg/kg once a day for 96 hours of ischemia. The source says:
This provides the basis of its use for treatment and prevention of ischemic brain lesions after thrombolysis, stenting, balloon angioplasty, atheroctomy and removal of aneurysms in the internal carotid and vertebral arteries system.

For the compound `OC(COCCC12CC3CC(CC(C3)C1)C2)CN1CCOCC1` (stereo not drawn) [1-adamantylethyloxy-3-morpholino-2-propanol], the “cerebral blood flow in the internal carotid artery system” value in test [1] is listed as “stimulates the cerebral blood flow”. Moreover, the “neuronal degradation marker activity (neurospecific enolase)” value with neurospecific enolase was “promoted the reduction”. Besides, in test [2], the NMDA-receptors blocking/unblocking entry was “very fast” and the “modulation of aspartate-activated currents (action on NMDA-receptor-ionofor complex)” value was “exhibits properties of activator NMDA-receptor-ionofor complex”. Moreover, in test [3], the endothelial dysfunction manifestations result is “promoted the decrease” and the nitrosating stress manifestations entry was “promoted the decrease”.
